Assay results taken from the SangsterLogP compilation.

logP | SMILES
1.35 | O=C(c1ccccc1)N1CCC(F)(F)C1
2.53 | O=C(NC1CC2(C1)CC(F)(F)C2)c1ccccc1
1.19 | O=C(c1ccccc1)N1CCCC1
1.74 | O=C(Nc1ccccc1)[C@@H]1CC[C@@H]1F
2.67 | O=C(c1ccccc1)N1CC2CCCC1(C(F)(F)F)C2 (stereo not drawn)
1.67 | O=C(N[C@H]1C[C@@H](F)C1)c1ccccc1
2.48 | O=C(NC1(C(F)F)CCC1)c1ccccc1
2.68 | O=C(Nc1ccccc1)C1CCCC1
1.4 | O=C(c1ccccc1)N1CCC(CF)C1 (stereo not drawn)
2.51 | O=C(NC1(C(F)(F)F)CCC1)c1ccccc1
1.4 | O=C(c1ccccc1)N1CCC(C(F)F)C1 (stereo not drawn)
2.28 | O=C(NCCCC(F)(F)F)c1ccccc1
3.26 | O=C(NC1CC2(CCC2)C1)c1ccccc1
2.05 | O=C(Nc1ccccc1)C12CC(C(F)(F)F)(CO1)C2
1.26 | O=C(c1ccccc1)N1CCCC(F)C1 (stereo not drawn)
2.57 | O=C(NC1CCCCC(F)(F)C1)c1ccccc1 (stereo not drawn)
1.4 | O=C(c1ccccc1)N1CC(C(F)F)C1
2.23 | O=C(NC1CCCC1)c1ccccc1
1.94 | O=C(N[C@@H]1CC[C@H]1C(F)F)c1ccccc1
2.72 | O=C(NC1CCCCC1)c1ccccc1
1.76 | O=C(NCC(F)(F)F)c1ccccc1
1.37 | O=C(NCC(F)F)c1ccccc1
2.31 | O=C(c1ccccc1)N1CC2CCC(C2)C1
2.12 | CC(F)(F)CCC(=O)Nc1ccccc1

logP | SMILES
1.36 | O=C(N[C@H]1C[C@H]1C(F)F)c1ccccc1
2.18 | O=C(c1ccccc1)N1CC2CCCC(C1)C2(F)F
2.88 | O=C(Nc1ccccc1)[C@@H]1CC[C@H]1C(F)(F)F
1.13 | O=C(c1ccccc1)N1CCC1
1.88 | O=C(Nc1ccccc1)C1(CF)CCC1
1.87 | O=C(NC1CCCC1(F)F)c1ccccc1 (stereo not drawn)
3.02 | O=C(Nc1ccccc1)[C@H]1C[C@H](C(F)(F)F)C1
2.03 | O=C(NC1(CF)CCC1)c1ccccc1
2.87 | O=C(Nc1ccccc1)[C@H]1C[C@@H]2C[C@@H]2C1
1.75 | O=C(c1ccccc1)N1CCC1C(F)(F)F (stereo not drawn)
2.88 | O=C(Nc1ccccc1)C1CCCCC1
2.07 | O=C(Nc1ccccc1)C1CC1(F)F (stereo not drawn)
2.92 | O=C(Nc1ccccc1)[C@@H]1C[C@@H]2C[C@@H]2C1
2.54 | O=C(N[C@@H]1CC[C@H]1C(F)(F)F)c1ccccc1
2.2 | O=C(c1ccccc1)N1CC2CCC1(C(F)(F)F)C2 (stereo not drawn)
2.11 | O=C(Nc1ccccc1)[C@@H]1CC[C@H]1CF
1.64 | C[C@@H]1C[C@@H]1NC(=O)c1ccccc1
2.41 | CC12CCCC(CN1C(=O)c1ccccc1)C2 (stereo not drawn)
2.14 | O=C(NC1C(F)(F)C12CC2)c1ccccc1 (stereo not drawn)
2.35 | O=C(Nc1ccccc1)C1CC12CC2 (stereo not drawn)
2.06 | O=C(CCCC(F)F)Nc1ccccc1
1.65 | O=C(c1ccccc1)N1CCCC(F)(F)C1
2.2 | O=C(c1ccccc1)N1CCC(C(F)(F)F)CC1
2.04 | O=C(NC1CC12CC2(F)F)c1ccccc1 (stereo not drawn)

logP | SMILES
1.97 | O=C(N[C@H]1C[C@H](C(F)F)C1)c1ccccc1
2.54 | O=C(c1ccccc1)N1CCCCC1C(F)(F)F (stereo not drawn)
2.62 | O=C(N[C@H]1C[C@@H](C(F)(F)F)C1)c1ccccc1
2.26 | CCC(F)(F)CC(=O)Nc1ccccc1
1.98 | O=C(N[C@H]1C[C@@H](C(F)F)C1)c1ccccc1
1.29 | O=C(NC1CC1)c1ccccc1
1.52 | O=C(c1ccccc1)N1CCCC(CF)C1 (stereo not drawn)
2.47 | O=C(N[C@H]1C[C@@H]2[C@H](C1)C2(F)F)c1ccccc1
2.04 | O=C(c1ccccc1)N1CCCCC1C(F)F (stereo not drawn)
2.37 | O=C(Nc1ccccc1)[C@H]1C[C@@H]2[C@H](C1)C2(F)F
2.19 | O=C(N[C@H]1C[C@@H]2C[C@@H]2C1)c1ccccc1
2.26 | O=C(Nc1ccccc1)C1CC(F)(F)C1
3.24 | O=C(Nc1ccccc1)C1CCCCCC1
0.58 | O=C(c1ccccc1)N1C[C@H](F)C[C@H](F)C1
3.03 | O=C(NC1CCCCCC1)c1ccccc1
1.93 | O=C(Nc1ccccc1)C12CC(C(F)F)(CO1)C2
2.14 | O=C(Nc1ccccc1)[C@H]1C[C@H](CF)C1
1.34 | O=C(c1ccccc1)N1CC(F)(F)C1
2.5 | O=C(Nc1ccccc1)C1CCC(F)(F)C1 (stereo not drawn)
2.32 | O=C(NC1CCC(F)(F)CC1)c1ccccc1
3.03 | O=C(Nc1ccccc1)C1CCCCC(F)(F)C1 (stereo not drawn)
2.09 | O=C(c1ccccc1)N1CC2CCC(C1)C2(F)F
1.85 | O=C(N[C@@H]1CC[C@H]1CF)c1ccccc1
1.73 | O=C(c1ccccc1)N1CCCC(C(F)F)C1 (stereo not drawn)

logP | SMILES
2.82 | O=C(N[C@H]1C[C@H](C(F)(F)F)C1)c1ccccc1
1.39 | O=C(c1ccccc1)N1CCCCC1
2.9 | O=C(Nc1ccccc1)C1CCCCCC1(F)F (stereo not drawn)
2.31 | C[C@@H]1C[C@@H]1C(=O)Nc1ccccc1
1.88 | O=C(c1ccccc1)N1CC2CCCC1C2 (stereo not drawn)
1.35 | O=C(c1ccccc1)N1C[C@@H](F)C[C@H](F)C1
2.16 | O=C(N[C@H]1C[C@H]1C(F)(F)F)c1ccccc1
1.96 | O=C(Nc1ccccc1)[C@H]1C[C@@H](CF)C1
2 | O=C(Nc1ccccc1)[C@H]1C[C@H](F)C1
1.49 | O=C(NCCC(F)F)c1ccccc1
2.12 | O=C(c1ccccc1)N1CCCC1C(F)(F)F (stereo not drawn)
2.19 | O=C(Nc1ccccc1)C1(C(F)F)CCC1
2.04 | O=C(Nc1ccccc1)[C@@H]1CC[C@H]1F
1.88 | O=C(c1ccccc1)N1CCCC1C(F)F (stereo not drawn)
2.23 | CCCCNC(=O)c1ccccc1
1.59 | O=C(c1ccccc1)N1CC2CC(C1)CC(F)(F)C2
2.69 | O=C(Nc1ccccc1)C1CC2(CC(F)C2)C1 (stereo not drawn)
1.7 | O=C(NC1CCC1(F)F)c1ccccc1 (stereo not drawn)
2.5 | O=C(NC1CCCC(F)(F)CC1)c1ccccc1 (stereo not drawn)
0.84 | O=C(c1ccccc1)N1CC2COCC(C2)C1
0.94 | O=C(c1ccccc1)N1CC(F)C1
1.31 | CCNC(=O)c1ccccc1
1.93 | O=C(NCCC(F)(F)F)c1ccccc1
1.81 | CC(F)(F)CCNC(=O)c1ccccc1

logP | SMILES
1.67 | O=C(c1ccccc1)N1CCC(C(F)F)CC1
1.64 | O=C(N[C@@H]1C[C@H]1C(F)F)c1ccccc1
2.72 | O=C(Nc1ccccc1)C1CCCC(F)(F)C1 (stereo not drawn)
2.29 | CCCCC(=O)Nc1ccccc1
2.66 | CC12CCC(CC1)CN2C(=O)c1ccccc1
2.36 | O=C(c1ccccc1)N1CC2CCCC(C2)C1
1.79 | O=C(N[C@@H]1C[C@H]1C(F)(F)F)c1ccccc1
1.77 | O=C(N[C@H]1C[C@@H](CF)C1)c1ccccc1
2.01 | O=C(c1ccccc1)N1CC2CCC1CC2
1.78 | O=C(N[C@H]1C[C@H](CF)C1)c1ccccc1
2.95 | O=C(Nc1ccccc1)C1CCCC(F)(F)CC1 (stereo not drawn)
1.66 | O=C(c1ccccc1)N1CC(C(F)(F)F)C1
2.25 | O=C(Nc1ccccc1)C1CCCC1(F)F (stereo not drawn)
1.7 | O=C(c1ccccc1)N1CCC(C(F)(F)F)C1 (stereo not drawn)
1.75 | O=C(c1ccccc1)N1CCCC1CF (stereo not drawn)
1.76 | O=C(NCCCC(F)F)c1ccccc1
1.92 | O=C(Nc1ccccc1)C1CC1
2.26 | O=C(Nc1ccccc1)C1CCC1
2.28 | O=C(Nc1ccccc1)[C@@H]1C[C@H]1C(F)F
2.39 | O=C(Nc1ccccc1)[C@H]1C[C@H](C(F)F)C1
0.91 | O=C(c1ccccc1)N1CCC(F)C1 (stereo not drawn)
1.86 | O=C(Nc1ccccc1)[C@H]1C[C@@H](F)C1
1.64 | O=C(N[C@@H]1CC[C@H]1F)c1ccccc1
2 | O=C(c1ccccc1)N1CCCCC1CF (stereo not drawn)

logP | SMILES
2.16 | O=C(NC1CCCCC1(F)F)c1ccccc1 (stereo not drawn)
1.45 | O=C(c1ccccc1)N1CCC(CF)CC1
1.83 | C[C@@H]1C[C@H]1NC(=O)c1ccccc1
1.03 | CNC(=O)c1ccccc1
2.66 | O=C(Nc1ccccc1)C1CC12CC2(F)F (stereo not drawn)
2.22 | O=C(Nc1ccccc1)[C@@H]1CC[C@H]1C(F)F
1.19 | O=C(c1ccccc1)N1CC2COCC(C1)C2(F)F
1.08 | O=C(c1ccccc1)N1C[C@@H](F)[C@H](F)C1
1.94 | O=C(NC1CC(F)(F)C1)c1ccccc1
2.04 | CCC(F)(F)CNC(=O)c1ccccc1
2.72 | O=C(Nc1ccccc1)[C@H]1C[C@@H](C(F)(F)F)C1
1.75 | CC12CC(CN1C(=O)c1ccccc1)C2
2.23 | O=C(N[C@@H]1C[C@@H]2[C@H](C1)C2(F)F)c1ccccc1
2.39 | O=C(NC1CC2(CC(F)C2)C1)c1ccccc1 (stereo not drawn)
1.65 | O=C(c1ccccc1)N1CC2CCC1C2 (stereo not drawn)
1.51 | O=C(c1ccccc1)N1CCC1C(F)F (stereo not drawn)
1.84 | O=C(c1ccccc1)N1CC2CC(F)(F)CC(C1)C2(F)F
2.5 | O=C(Nc1ccccc1)C1CCCCC1(F)F (stereo not drawn)
2.63 | O=C(Nc1ccccc1)C1CCC(F)(F)CC1
2.42 | C[C@@H]1C[C@H]1C(=O)Nc1ccccc1
2.12 | O=C(Nc1ccccc1)[C@H]1C[C@H]1C(F)(F)F
2.08 | O=C(NC1CC12CC2)c1ccccc1 (stereo not drawn)
2.98 | O=C(Nc1ccccc1)[C@@H]1C[C@H]1C(F)(F)F
1.93 | O=C(c1ccccc1)N1CC2CC1(C(F)(F)F)C2

SMILES | logP
O=C(c1ccccc1)N1CC(CF)C1 | 0.93
O=C(NCCF)c1ccccc1 | 1.07
O=C(N[C@@H]1C[C@H]1CF)c1ccccc1 | 1.41
O=C(NCCCCF)c1ccccc1 | 1.56
O=C(Nc1ccccc1)[C@@H]1C[C@@H]1CF | 1.88
O=C(c1ccccc1)N1CCC1CF (stereo not drawn) | 1.4
O=C(NCCCF)c1ccccc1 | 1.28
O=C(N[C@@H]1C[C@@H]1CF)c1ccccc1 | 1.12
O=C(Nc1ccccc1)[C@@H]1C[C@H]1CF | 1.12
